Values quoted from earlier work as cited in patent publication EP4563141A1, “SELF-EMULSIFYING FORMULATION FOR TOPICAL USE” (Guidotti, Elena, priority 2023, dated 2025).
Where two headings read alike, the source gives them in different places.

Experiments:
[1] = test system: S. aureus biofilm formation; settings: 0.01% (v/v); trans-nerolidol at a similar concentration
CB2 = CB2 (Homo sapiens, UniProt P34972)
CB1 = CB1 (Homo sapiens, UniProt P21554)
[2] = human; 4% nerolidol (unspecified isomer); single occlusive application for 48 h
[3] = not given; remark: listed apart in the source
[4] = compared with animals in the control group
[5] = human; 4% (unspecified isomer); maximization tests or repeated insult tests
[6] = several drugs, particularly 5-fluorouracil, with the use of nerolidol
[7] = not given; remark: listed apart in the source

Chain of CB2 (P34972 whole entry, species assumed): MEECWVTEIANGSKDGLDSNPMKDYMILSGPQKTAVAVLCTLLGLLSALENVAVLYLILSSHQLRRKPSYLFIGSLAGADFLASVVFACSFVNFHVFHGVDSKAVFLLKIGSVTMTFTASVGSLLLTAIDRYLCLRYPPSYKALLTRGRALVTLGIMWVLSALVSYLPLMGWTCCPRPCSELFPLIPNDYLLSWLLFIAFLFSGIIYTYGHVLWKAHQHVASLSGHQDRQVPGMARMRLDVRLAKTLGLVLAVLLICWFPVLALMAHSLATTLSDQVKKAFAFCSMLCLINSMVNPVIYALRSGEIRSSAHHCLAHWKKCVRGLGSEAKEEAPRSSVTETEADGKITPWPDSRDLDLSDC
Chain of CB1 (P21554 whole entry, species assumed): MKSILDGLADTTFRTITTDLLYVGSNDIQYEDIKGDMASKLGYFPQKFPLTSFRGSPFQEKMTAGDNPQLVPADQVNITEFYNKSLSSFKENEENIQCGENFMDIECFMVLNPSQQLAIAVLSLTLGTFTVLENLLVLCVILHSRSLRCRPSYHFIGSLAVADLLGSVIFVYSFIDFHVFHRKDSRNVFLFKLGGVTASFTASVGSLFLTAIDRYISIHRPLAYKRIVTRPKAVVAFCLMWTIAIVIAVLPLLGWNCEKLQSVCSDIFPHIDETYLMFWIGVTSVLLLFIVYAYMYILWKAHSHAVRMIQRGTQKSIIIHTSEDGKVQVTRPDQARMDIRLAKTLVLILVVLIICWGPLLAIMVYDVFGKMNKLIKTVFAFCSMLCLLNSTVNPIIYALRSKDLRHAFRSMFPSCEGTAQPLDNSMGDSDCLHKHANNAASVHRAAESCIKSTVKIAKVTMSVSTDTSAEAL

C=CC(C)(O)CC/C=C(/C)CCC=C(C)C (stereo not drawn) [Cis-nerolidol]
inhibit S. aureus biofilm formation [1]: more than 80%

C=CCc1ccc(O)c(-c2ccc(O)c(CC=C)c2)c1 [honokiol]
LogP: over 4
mode of activity at CB2 (CB2): antagonistic properties
mode of activity at CB1 (CB1): full agonistic activity

C=CCc1ccc(O)c(-c2cc(CC=C)ccc2O)c1 [magnolol]
LogP: over 4
mode of activity at CB2 (CB2): partial CBD receptor agonist

C=CC(C)(O)CCC=C(C)CCC=C(C)C (centres unmarked) [nerolidol, 3,7,11-trimethyl-1,6,10-Dodecatrien-3-ol]
skin irritation [2]: did not cause skin irritation
cross-sensitization ([3]; guinea pigs induced with farnesyl acetate): no cross-sensitization was observed
skin sensitization ([3]; guinea pigs, two adjuvant tests, concentrations of 3% and 10%): weak reactions
reduction in ulcerative lesion index (ULI) ([4]; 50 mg/k): 41.22
reduction in ulcerative lesion index (ULI) ([4]; 250 mg/k): 51.31
reduction in ulcerative lesion index (ULI) ([4]; 500 mg/k): 56.57
skin sensitization [5]: did not cause positive reactions
increase in diffusion rate for transdermal penetration [6]: more than 20 fold
skin irritation ([7]; 5% in diethyl phthalate, eliminated after 48 h): very mild edema in one animal
skin irritation ([7]; rabbits, undiluted (unspecified isomer), intact and abraded skin, after 48 h): well-defined erythema or mild edema

C=CC(C)(O)CC/C=C(\C)CCC=C(C)C (stereo not drawn) [trans-nerolidol]
inhibit S. aureus biofilm formation [1]: 45%
